# Results as given in patent US20120225061A1, “TETRASUBSTITUTED CYCLOHEXYL COMPOUNDS AS KINASE INHIBITORS” (priority 2011, published 2012).
# Like-named read-outs stand apart in the source and are kept apart here.
# Experiments:
# Pim1 kinase [1] = biological target: T1, Pim1 kinase (Homo sapiens, UniProt P11309); experiment: KinaseGlo Pim1 ATP depletion assay; assay type: biochemical; conditions: Table 4, 2.5 nM PIM1, 20 μM ATP, 40 μM BAD peptide
# Procedure: The activity of PIM1 is measured using a luciferase-luciferin based ATP detection reagent to quantify ATP depletion resulting from kinase-catalyzed phosphoryl transfer to a peptide substrate. Compounds to be tested are dissolved in 100% DMSO and directly distributed into white 384-well plates at 0.5 μl per well. […] After 15 minutes, 10 μl of 40 μM ATP in assay buffer is added. […] The reaction is performed until approximately 50% of the ATP is depleted, then stopped with the addition of 20 μl KinaseGlo Plus (Promega Corporation) solution. The stopped reaction is incubated for 10 minutes and the remaining ATP detected via luminescence on the Victor2 (Perkin Elmer).
# [2] = tested on: KMS11 (human myeloma cell line); experiment: Cell proliferation assay (CellTiter-Glo) in KMS11 cells; assay type: cell-based; conditions: KMS-11, 72 h, read-out: KMS11-luc EC50
# How it was run: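 KMS11 cells at 2000 per well in IMDM/10% FBS were exposed to compound for 3 days. Viability was read by CellTiter-Glo luminescence.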
# Pim3 kinase [3] = biological target: T2, Pim3 kinase (Homo sapiens, UniProt Q86V86); experiment: KinaseGlo Pim3 ATP depletion assay; assay type: biochemical; conditions: Table 4, 40 μM ATP, 100 μM BAD peptide
# Procedure: (§1) The activity of PIM3 is measured using a luciferase-luciferin based ATP detection reagent to quantify ATP depletion resulting from kinase-catalyzed phosphoryl transfer to a peptide substrate. Compounds to be tested are dissolved in 100% DMSO and directly distributed into white 384-well plates at 0.5 μl per well. […] After 15 minutes, 10 μl of 80 μM ATP in assay buffer is added. Final assay concentrations are 5 nM PIM1, 40 μM ATP, 100 μM BAD peptide and 2.5% DMSO. The reaction is performed until approximately 50% of the ATP is depleted, then stopped by the addition of 20 μl KinaseGlo Plus (Promega Corporation) solution. The stopped reaction is incubated for 10 minutes and the remaining ATP detected via luminescence on the Victor2 (Perkin Elmer).
# Pim2 kinase [4] = biological target: T3, Pim2 kinase (Homo sapiens, UniProt Q9P1W9); experiment: KinaseGlo Pim2 ATP depletion assay; assay type: biochemical; conditions: Table 4, 5 nM PIM2, 4 μM ATP, 10 μM BAD peptide
# Procedure: as §1, with “of PIM2” for “of PIM3”, “of 8” for “of 80”, “nM PIM2, 4” for “nM PIM1, 40”, “ATP, 10” for “ATP, 100”, “stopped with” for “stopped by”
# Pim3 kinase [5] = biological target: T2, Pim3 kinase; experiment: Pim3 AlphaScreen assay (high ATP)
# Pim2 kinase [6] = biological target: T3, Pim2 kinase; experiment: Pim2 AlphaScreen assay (high ATP)
# Pim1 kinase [7] = biological target: T1, Pim1 kinase; experiment: Pim1 AlphaScreen assay (high ATP)
# T1 sequence (P11309 whole entry): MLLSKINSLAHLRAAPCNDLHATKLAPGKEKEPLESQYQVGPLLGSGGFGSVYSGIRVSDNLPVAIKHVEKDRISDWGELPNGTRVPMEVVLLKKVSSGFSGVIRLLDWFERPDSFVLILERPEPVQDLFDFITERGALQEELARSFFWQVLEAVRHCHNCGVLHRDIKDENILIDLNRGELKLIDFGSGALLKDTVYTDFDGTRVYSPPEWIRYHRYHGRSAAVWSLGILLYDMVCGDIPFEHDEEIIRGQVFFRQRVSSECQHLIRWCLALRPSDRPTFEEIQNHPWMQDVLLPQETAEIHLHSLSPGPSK
# T3 sequence (Q9P1W9 whole entry): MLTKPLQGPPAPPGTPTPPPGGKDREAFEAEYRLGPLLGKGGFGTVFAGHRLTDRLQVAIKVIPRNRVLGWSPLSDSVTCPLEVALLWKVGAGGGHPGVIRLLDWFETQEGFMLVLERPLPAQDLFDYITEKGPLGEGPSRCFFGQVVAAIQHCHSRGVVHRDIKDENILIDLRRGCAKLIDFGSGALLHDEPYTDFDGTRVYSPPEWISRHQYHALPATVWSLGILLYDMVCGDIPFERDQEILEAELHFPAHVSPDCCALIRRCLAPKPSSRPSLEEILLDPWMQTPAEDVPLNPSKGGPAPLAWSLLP
Compound,IC50 (Pim1 kinase [1]) [nM],"EC50 ([2]; Table 4, 3 days) [nM]",IC50 (Pim3 kinase [3]) [nM],IC50 (Pim2 kinase [4]) [nM],"EC50 ([2]; Table 5, 3 days) [nM]",IC50 (Pim3 kinase [5]) [nM],IC50 (Pim2 kinase [6]) [nM],IC50 (Pim1 kinase [7]) [nM]
"C[C@H]1C[C@@H](c2ccncc2NC(=O)c2ccc(F)c(-c3c(F)cccc3F)n2)C[C@@H](O)C1(O)CO (stereo in doubt) [Example 59, 6-(2,6-difluorophenyl)-N-(4-((1R,3R,4R,5S)-3,4-dihydroxy-4-(hydroxymethyl)-5-methylcyclohexyl)pyridin-3-yl)-5-fluoropicolinamide]",0.3,1070,1.3,1.5,–,–,–,–
"CC[C@]1(O)[C@H](O)C[C@H](c2ccncc2NC(=O)c2nc(-c3c(F)cccc3F)ccc2N)C[C@@H]1C [Example 32, 3-amino-6-(2,6-difluorophenyl)-N-(4-((1R,3R,4R,5S)-4-ethyl-3,4-dihydroxy-5-methylcyclohexyl)pyridin-3-yl) picolinamide]",0.4,880,1.4,1,–,–,–,–
"CC[C@]1(O)[C@H](O)C[C@H](c2ccncc2NC(=O)c2nc(-c3c(F)cccc3F)c(F)cc2N)C[C@@H]1C [Example 33, 3-amino-6-(2,6-difluorophenyl)-N-(4-((1R,3R,4R,5S)-4-ethyl-3,4-dihydroxy-5-methylcyclohexyl)pyridin-3-yl)-5-fluoropicolinamide]",0.5,580,1.8,1.1,–,–,–,–
"CC[C@]1(O)[C@H](O)C[C@H](c2ccncc2NC(=O)c2nc(-c3c(F)cccc3F)ncc2N)C[C@@H]1C [Example 34, 5-amino-2-(2,6-difluorophenyl)-N-(4-((1R,3R,4R,5S)-4-ethyl-3,4-dihydroxy-5-methylcyclohexyl)pyridin-3-yl) pyrimidine-4-carboxamide]",0.6,610,1.7,1.3,–,–,–,–
"CC[C@]1(O)[C@H](C)C[C@H](c2ccncc2NC(=O)c2nc(-c3c(F)cccc3F)ncc2N)C[C@@H]1O [Example 35, 5-amino-2-(2,6-difluorophenyl)-N-(4-((1S,3S,4S,5R)-4-ethyl-3,4-dihydroxy-5-methylcyclohexyl)pyridin-3-yl) pyrimidine-4-carboxamide]",49.5,≥ 10000,150,676,–,–,–,–
"C[C@H]1C[C@@H](c2ccncc2NC(=O)c2cncc(-c3ccccc3)n2)C[C@@H](O)[C@]1(C)O [Example 36, N-(4-((1R,3R,4R,5S)-3,4-dihydroxy-4,5-dimethylcyclohexyl)pyridin-3-yl)-6-phenylpyrazine-2-carboxamide]",525,–,307,5410,–,–,–,–
"C[C@H]1C[C@@H](c2ccncc2NC(=O)c2nc(-c3ccccc3)cnc2N)C[C@@H](O)[C@]1(C)O [Example 37, 3-amino-N-(4-((1R,3R,4R,5S)-3,4-dihydroxy-4,5-dimethylcyclohexyl)pyridin-3-yl)-6-phenylpyrazine-2-carboxamide]",1.3,–,2.5,4.9,–,–,–,–
"C[C@H]1C[C@@H](c2ccncc2NC(=O)c2nc(Br)ccc2N)C[C@@H](O)[C@]1(C)O [Example 38, 3-amino-6-bromo-N-(4-((1R,3R,4R,5S)-3,4-dihydroxy-4,5-dimethylcyclohexyl)pyridin-3-yl) picolinamide]",3.6,≥ 10000,9.3,24.3,–,–,–,–
"C[C@H]1C[C@@H](c2ccncc2NC(=O)c2ccnc(-c3c(F)cccc3F)n2)C[C@@H](O)[C@@]1(O)CO [Example 39, 2-(2,6-difluorophenyl)-N-(4-((1R,3R,4S,5S)-3,4-dihydroxy-4-(hydroxymethyl)-5-methylcyclohexyl)pyridin-3-yl) pyrimidine-4-carboxamide]",4.7,≥ 10000,4.5,25.5,–,–,–,–
"C[C@@H]1C[C@H](c2ccncc2NC(=O)c2ccnc(-c3c(F)cccc3F)n2)C[C@H](O)[C@]1(O)CO [Example 40, 2-(2,6-difluorophenyl)-N-(4-((1S,3S,4R,5R)-3,4-dihydroxy-4-(hydroxymethyl)-5-methylcyclohexyl)pyridin-3-yl) pyrimidine-4-carboxamide]",209,≥ 10000,385,2880,–,–,–,–
"CC[C@]1(O)[C@H](O)C[C@H](c2ccncc2NC(=O)c2ccc(F)c(-c3c(F)cccc3F)n2)C[C@@H]1C [Example 41, 6-(2,6-difluorophenyl)-N-(4-((1R,3R,4R,5S)-4-ethyl-3,4-dihydroxy-5-methylcyclohexyl)pyridin-3-yl)-5-fluoropicolinamide]",0.9,–,2.9,2.3,–,–,–,–
"CC[C@]1(O)[C@H](C)C[C@H](c2ccncc2NC(=O)c2ccc(F)c(-c3c(F)cccc3F)n2)C[C@@H]1O [Example 42, 6-(2,6-difluorophenyl)-N-(4-((1S,3S,4S,5R)-4-ethyl-3,4-dihydroxy-5-methylcyclohexyl)pyridin-3-yl)-5-fluoropicolinamide]",44.6,≥ 10000,434,846,–,–,–,–
"CC(=O)OC[C@]1(O)[C@H](O)C[C@H](c2ccncc2NC(=O)c2ccc(F)c(-c3c(F)cccc3F)n2)C[C@@H]1C [Example 43, ((1S,2R,4R,6S)-4-(3-(6-(2,6-difluorophenyl)-5-fluoropicolinamido)pyridin-4-yl)-1,2-dihydroxy-6-methylcyclohexyl) methylacetate]",0.4,1540,2,2,–,–,–,–
"C[C@H]1C[C@@H](c2ccncc2NC(=O)c2nc(-c3nc(Cl)c(C#N)cc3F)ccc2N)C[C@@H](O)[C@]1(C)O [Example 131, 5-amino-6′-chloro-5′-cyano-N-(4-((1R,3R,4R,5S)-3,4-dihydroxy-4,5-dimethylcyclohexyl)pyridin-3-yl)-3′-fluoro-2,2′-bipyridine-6-carboxamide]",–,≥ 10000,–,51.6,> 10000,5090,17000,146
"C[C@H]1C[C@@H](c2ccncc2NC(=O)c2nc(-c3cc(F)ccn3)ccc2N)C[C@@H](O)[C@]1(C)O [Example 132, 5-amino-N-(4-((1R,3R,4R,5S)-3,4-dihydroxy-4,5-dimethylcyclohexyl)pyridin-3-yl)-4′-fluoro-2,2′-bipyridine-6-carboxamide]",–,7140,–,162,7140,> 25000,> 25000,2530
"CC(=O)c1ccc(F)c(-c2ccc(N)c(C(=O)Nc3cnccc3[C@H]3C[C@@H](O)[C@](C)(O)[C@@H](C)C3)n2)n1 [Example 133, 6′-acetyl-5-amino-N-(4-((1R,3R,4R,5S)-3,4-dihydroxy-4,5-dimethylcyclohexyl)pyridin-3-yl)-3′-fluoro-2,2′-bipyridine-6-carboxamide]",–,5370,–,5.4,5370,182,2630,7.19
"C[C@H]1C[C@@H](c2ccncc2NC(=O)c2nc(-c3ccc(F)cn3)ccc2N)C[C@@H](O)[C@]1(C)O [Example 134, 5-amino-N-(4-((1R,3R,4R,5S)-3,4-dihydroxy-4,5-dimethylcyclohexyl)pyridin-3-yl)-5′-fluoro-2,2′-bipyridine-6-carboxamide]",–,4150,–,50.7,4150,3390,14300,78.7
"C[C@H]1C[C@@H](c2ccncc2NC(=O)c2nc(-c3cccc(F)n3)ccc2N)C[C@@H](O)[C@]1(C)O [Example 135, 5-amino-N-(4-((1R,3R,4R,5S)-3,4-dihydroxy-4,5-dimethylcyclohexyl)pyridin-3-yl)-6′-fluoro-2,2′-bipyridine-6-carboxamide]",–,≥ 10000,–,14.2,> 10000,1130,5690,33.5
